As a reminder, the inhibition is how much of the control response was suppressed. A low value points to little suppression.

This is an account of results in patent US8883856B2, “Compositions and methods for the treatment of inflammatory diseases using topoisomerase inhibitors” (priority 2000, dated 2014).

One series has as its system stromelycin gene. Kind of series: IL-1 induced stromelycin gene expression in chondrocytes. The series is classed as cell-based, calf. Particulars: for stromelysin expression: 1×10^−6 M. The text has this: (§1) This assay measures the levels of RNA for the two metalloproteinases, collagenase and stromelysin. Over-expression of these genes results in excessive synthesis and secretion of these two enzymes from articular chondrocytes and may represent part of the pathophysiology of rheumatoid arthritis. Agents that inhibit over-expression of collagenase and stromelysin can be antiarthritc agents. […] Proteoglycan gene expression is part of the normal physiology of chondrocytes.
Primary chondrocyte culture was freshly isolated from calf cartilage. The cells were plated (at 2.5×10^6/mL) in 100×20 mm culture dishes and incubated in Ham's F12 medium containing 5% fetal bovine serum (FBS) overnight at 37° C. The cells were starved with serum-free medium overnight. […] Then IL-1 (20 ng/mL) was added to each plate and the plates were incubated for an additional 18 hours. Total RNA was isolated by the acidified guanidine isothiocyanate method and subjected to electrophoresis on a denatured gel. Denatured RNA samples (15 ug) were analyzed by gel electrophoresis in a 1% denaturing gel, transferred to a nylon membrane, and hybridized respectively with the ^32P-labelled collagenase cDNA probe, ^32P-labelled stromelycin cDNA probe, ^32P-labelled proteoglycan cDNA probe and ^32P-labelled glyceraldehyde phosphate dehydrogenase (PAGDH) cDNA. The PAGDH levels acted as an internal standard to ensure roughly equal loading. The experimental results on X-ray films were scanned and analyzed with HP ScanJet.

The subject of the next series is proteoglycan gene. Put plainly: Proteoglycan gene expression in chondrocytes. It counts as cell-based, calf.
From the text: as §1
Primary chondrocyte culture was freshly isolated from calf cartilage. The cells were plated (at 2.5×10^6/mL) in 100×20 mm culture dishes and incubated in Ham's F12 medium containing 5% fetal bovine serum (FBS) overnight at 37° C. The cells were starved with serum-free medium overnight. The cells were pretreated with camptothecin at concentrations of 10^−6 M, 10^−7 M and 10^−8 M for 6 hours. Then IL-1 (20 ng/mL) was added to each plate and the plates were incubated for an additional 18 hours. Total RNA was isolated by the acidified guanidine isothiocyanate method and subjected to electrophoresis on a denatured gel. Denatured RNA samples (15 ug) were analyzed by gel electrophoresis in a 1% denaturing gel, transferred to a nylon membrane, and hybridized respectively with the ^32P-labelled collagenase cDNA probe, ^32P-labelled stromelycin cDNA probe, ^32P-labelled proteoglycan cDNA probe and ^32P-labelled glyceraldehyde phosphate dehydrogenase (PAGDH) cDNA. The PAGDH levels acted as an internal standard to ensure roughly equal loading. The experimental results on X-ray films were scanned and analyzed with HP ScanJet.

The next series deals with human neutrophils. Put plainly: Neutrophil chemiluminescence (neutrophil activation). It counts as cell-based. Particulars: for IC50 / inhibition at 10 µM: Homo sapiens, Neutrophil; for IC50: read-out: IC 50, inhibition of neutrophil chemiluminescence. The procedure: Freshly prepared human neutrophils were incubated with the compound followed by stimulation of the cells with either plasma opsonized CPPD crystals, the bacterial chemoattractant, fMLP or the phorbol ester, PMA. Stimulation (or activation) of the cells induced superoxide anion generation which could be measured by the emission of light (chemiluminescence). Inhibition of neutrophil function was then determined by inhibition of chemiluminescence. Hanks buffered salt solution (HBSS) pH 7.4 was used throughout the study. All chemicals were purchased from Sigma Chemical Co. (St. Louis, Mo.) unless otherwise stated. All procedures were performed at 37° C. unless otherwise stated. CPPD (triclinic) crystals were prepared and characterized as previously reported (Jackson J K et al., J Rheumatol, 24: 341-348, 1996). The size distribution of the crystals was approximately 33% less than […]. Opsonization of crystals was carried out using 50% heparinized plasma and concentrations of 50 mg of CPPD in 1 mL of 50% plasma. Crystals were incubated with diluted plasma for 30 min at 37° C., centrifuged at 1000×g, then washed in HBSS and recentrifuged. Neutrophils were prepared from freshly collected, human, citrated whole blood. Briefly, 400 mL of blood were mixed with 80 mL of 4% dextran T500 (Pharmacia LKB, Biotechnology AB Uppsala, Sweden) in HBSS and allowed to settle for 1 h. Plasma was collected continuously and 5 mL applied to 5 mL Ficoll Paque (Pharmacia) in 15 mL polypropylene tubes (Corning, N.Y.). Following centrifugation at 500×g for 30 min, the neutrophil pellets were washed free of erythrocytes by 20 s of hypotonic shock. Neutrophils were resuspended in HBSS, kept on ice and used for experiments within 3 h. Neutrophil viability and purity was always greater than 90%.
A stock solution of drug was diluted in DMSO to give various concentrations of drug. Equal volumes of these solutions were added to neutrophils at 5×10^6 cells per mL under mild vortexing to achieve final concentrations with a final DMSO concentration of 0.25%. This DMSO concentration found to have no effect on control cell responses. Cells were incubated for 15 minutes at 37° C. before addition to crystals, fMLP or PMA.
Chemiluminescence studies were performed at a cell concentration of 5×10^6 cells per mL in HBSS with CPPD (50 mg/mL). In all experiments 0.5 mL of cells were added to 25 mg of CPPD or 1 uM fMLP (and 0.5 uM cytochalasin B) or 0.5 uM PMA in 1.5 ml Eppendorf tubes. To the tubes were added 10 uL of luminol dissolved in 25% DMSO in HBSS to give a final concentration of 1 μM and the samples were mixed to initiate neutrophil activation. Chemiluminescence was monitored using an LKB Luminometer (Model 1250) at 37° C. with shaking immediately prior to measurements to resuspend the crystals. Control tubes contained cells, drug and luminol (crystals absent).

Series [1] in a line: In vitro drug release from polymeric formulations. The series is classed as physicochemical.
The test system of a further series is rat carotid artery. The series is classed as in vivo. Conditions: for inhibition of intimal hyperplasia / inhibition of luminal narrowing: perivascular. The source says: In this model of restenosis, a balloon catheter is used to induce damage to the lumen of carotid arteries in rats. This damage causes extensive intimal hyperplasia and luminal narrowing, characteristic of restenosis. To determine the effect of drugs as antirestenosis agents, a polymeric dosage form of a drug is applied to the outside of the artery (perivascular application).
Wistar rats weighing 400 g to 500 g were anesthetized with halothane. A vertical incision was made over the trachea and the left carotid artery was exposed. Two ligatures were placed around the external carotid artery and an arteriotomy was made between them. A 2 French Fogarty balloon catheter was introduced into the external carotid artery and pushed into the left common carotid artery and the balloon was inflated with saline. The catheter was passed up and down the entire length of the carotid artery three times to stretch the vessel and denude the endothelium. The catheter was removed and the ligatures were tied off on the external carotid artery. […] The wound was then closed and the animals recovered. After 14 days, the rats were sacrificed and pressure perfused at 100 mmHg with 10% buffered formaldehyde. Both carotid arteries were harvested and processed for histology. Serial cross-sections were cut every 2 mm within and outside the implant in the injured left carotid artery and at corresponding levels in the control right carotid artery. Sections were stained with hematoxylin-and-eosin and Movat's stains and digitized for computer assisted morphometric analysis to quantify luminal narrowing and intimal hyperplasia.

Where [2] appears, read: polycaprolactone microspheres, PBS pH 7.4, 37° C.
Setting [3] is: polycaprolactone paste, PBS, 37° C.
The mark [4] stands for this setting: three agonists: CPPD crystals, fMLP, PMA.
The mark [5] stands for this setting: chitosan films, PBS pH 7.4, 37° C.
Setting [6] is: ethylene vinyl acetate films, PBS pH 7.4, 37° C.
Setting [7] is: poly(L-lactic acid) microspheres, PBS pH 7.4, 37° C.
Setting [8] is: triblock copolymer/MePEG paste, PBS pH 7.4 with n-octanol, 37° C.

Like-named read-outs stand apart in the source and are kept apart here. Some results are limits rather than exact numbers.

Regarding `CC1=CC(=O)c2ccccc2C1=O` [menadione], in the series with stromelycin gene (1×10^−5 M), the “IL-1 induced stromelycin gene expression” value is “inhibited”. For the same compound, the proteoglycan expression entry in the series with proteoglycan gene is “without excessive inhibition”. The IC50 in the series on human neutrophils (activation by MSUM crystals) is 0.5 to 1 µg/mL. The drug release profile entry in series [1] (setting [2]) and in series [1] (setting [3]) was “initial burst of drug release followed by a slow sustained release” each time.
For `CC1=CC(=O)c2c(O)cccc2C1=O` [plumbagin], in the series with stromelycin gene (1×10^−5 M), the “IL-1 induced stromelycin gene expression” value is “completely inhibited”. Further, in the series on stromelycin gene, the stromelysin expression entry is “partial inhibition”. For the same compound, the IC50 with human neutrophils (setting [4]) was less than 1 µg/mL. In addition, the “necrosis or toxicity after perivascular application” value (from here on “necrosis or toxicity”) in the series with rat carotid artery (applied to the perivascular side of the rat carotid artery) is reported as “excessive toxicities”. Moreover, the drug release profile entry in series [1] (setting [5]), in series [1] (setting [6]), in series [1] (setting [7]), in series [1] (setting [2]), in series [1] (setting [3]) and in series [1] (setting [8]) was “initial burst of drug release followed by a slow sustained release” throughout.
Take `CC1(C)CCC2=C(O1)c1ccccc1C(=O)C2=O` [beta-lapachone]: the “IL-1 induced stromelycin gene expression” value in the series on stromelycin gene (1×10^−5 M) is “almost completely inhibited”. Also, the proteoglycan expression result with proteoglycan gene is “without excessive inhibition”. The IC50 with human neutrophils (setting [4]) is 1 to 10 µM. Besides, the drug release profile result in series [1] (setting [6]) and in series [1] (setting [3]) was “initial burst of drug release followed by a slow sustained release” in each case.
For `COc1cc([C@@H]2c3cc4c(cc3[C@@H](O[C@@H]3O[C@@H]5CO[C@@H](C)O[C@H]5[C@H](O)[C@H]3O)[C@H]3COC(=O)[C@H]23)OCO4)cc(OC)c1O` [etoposide], the “IL-1 induced stromelycin gene expression” value in the series on stromelycin gene (1×10^−5 M) is “inhibited”. For the same compound, testing at 10 µM with human neutrophils gave an inhibition of 25%. Further, the “inhibition of intimal hyperplasia” value with rat carotid artery (both 1% and 5% loaded EVA films) is listed as “approximately 75%”. The “necrosis or toxicity” value in the series on rat carotid artery (rat, in vivo) was “did not induce any necrosis or toxicity in surrounding tissue”. Further, the drug release profile entry in series [1] (setting [6]) and in series [1] (setting [3]) was “initial burst of drug release followed by a slow sustained release” throughout.
`COc1cccc2c1C(=O)c1c(O)c3c(c(O)c1C2=O)C[C@@](O)(C(=O)CO)C[C@@H]3O[C@H]1C[C@H](N)[C@H](O)[C@H](C)O1` [doxorubicin]: in the series on stromelycin gene (1×10^−5 M), the “IL-1 induced stromelycin gene expression” value is “completely inhibited”. In addition, the stromelysin expression entry in the series with stromelycin gene is on record as “partial inhibition”. Also, the inhibition at 10 µM with human neutrophils turned out to be 13%. Besides, in the series with rat carotid artery (2% loading (w/w to EVA) film), the “inhibition of intimal hyperplasia” value was “completely inhibited” and the “inhibition of luminal narrowing” value is on record as “completely inhibited”. Besides, the “necrosis or toxicity” value with rat carotid artery (rat, in vivo) is on record as “did not induce any necrosis or toxicity in surrounding tissue”. Further, the drug release profile result in series [1] (setting [6]) is reported as “initial burst of drug release followed by a slow sustained release”. Also, the drug release profile entry in series [1] (setting [3]) is “initial burst of drug release followed by a slow sustained release”.
Regarding `CC[C@@]1(O)C(=O)OCc2c1cc1n(c2=O)Cc2cc3ccccc3nc2-1` [camptothecin], in the series on stromelycin gene (1×10^−7 M), the “IL-1 induced stromelycin gene expression” value is given as “almost completely inhibited”. Also, the proteoglycan expression result in the series on proteoglycan gene (1×10^−7 M) was “without excessive inhibition”. The “inhibition of neutrophil chemiluminescence” value in the series with human neutrophils (concentration printed as (5%)) is given as 2%. Moreover, the “inhibition of luminal narrowing” value in the series on rat carotid artery (0.2% (w/w to EVA) film) is “more than 50%”. The “inhibition of intimal hyperplasia” value in the series on rat carotid artery (0.2%, 1% and 10% loaded EVA films, 14 days) is “partial inhibition”; with rat carotid artery (20% loaded EVA film, 14 days), “Complete inhibition”. Besides, in the series with rat carotid artery (all concentrations above 0.2% in EVA film), the luminal narrowing result is recorded as “reduced the luminal narrowing to almost zero”. Also, the “effect of addition of MePEG to the PCL on release rate” value in series [1] (10% and 20% camptothecin loaded PCL paste, 20% MePEG) was “accelerated the release rate”. Besides, the drug release profile entry in series [1] (setting [5]), in series [1] (setting [6]), in series [1] (setting [7]), in series [1] (setting [3]) and in series [1] (setting [8]) was “initial burst of drug release followed by a slow sustained release” each time.
